Tests used:
Test in all cases: relative viability (nuclei count vs DMSO), 5 days (fraction); higher = more cells survive
Masitinib + Decitabine = compound: Cc1ccc(NC(=O)c2ccc(CN3CCN(C)CC3)cc2)cc1Nc1nc(-c2cccnc2)cs1 [Masitinib] + Nc1ncn([C@H]2C[C@H](O)[C@@H](CO)O2)c(=O)n1 [Decitabine] (partner 2 µM)
How it was run: (§1)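 Five library-drug doses in √10 steps were combined with a fixed anchor-drug dose, or a single drug was given alone, by pin tool to lung cancer cell lines in 1536-well plates the day after seeding. Nuclei were stained and counted after 5 days. Relative viability is the nuclei count in treated wells over that in vehicle wells, taken as the median of duplicate plates.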

[1] = compound: CC1=CC(=CC=C1)NC2=NC(=CS2)C3=CC=NC=C3 + CS(=O)(=O)CCNCc1ccc(-c2ccc3ncnc(Nc4ccc(OCc5cccc(F)c5)c(Cl)c4)c3c2)o1 [Lapatinib] (partner 2 µM)
How it was run: as §1

Masitinib + Tozasertib = compound: Cc1ccc(NC(=O)c2ccc(CN3CCN(C)CC3)cc2)cc1Nc1nc(-c2cccnc2)cs1 [Masitinib] + Cc1cc(Nc2cc(N3CCN(C)CC3)nc(Sc3ccc(NC(=O)C4CC4)cc3)n2)n[nH]1 [Tozasertib] (partner 0.1 µM)
How it was run: as §1

[2] = compound: CC1=CC(=CC=C1)NC2=NC(=CS2)C3=CC=NC=C3 + O=C(c1cc(Cc2n[nH]c(=O)c3ccccc23)ccc1F)N1CCN(C(=O)C2CC2)CC1 [Olaparib] (partner 8 µM)
How it was run: as §1

| Cell Line | relative viability (Masitinib + Decitabine; first compound 0.01 µM) | relative viability (Masitinib + Decitabine; first compound 0.03162 µM) | relative viability (Masitinib + Decitabine; first compound 0.1 µM) | relative viability (Masitinib + Decitabine; first compound 0.3162 µM) | relative viability (Masitinib + Decitabine; first compound 1 µM) | relative viability ([1]; first compound 0.08 µM) | relative viability ([1]; first compound 0.253 µM) | relative viability ([1]; first compound 0.8 µM) | relative viability ([1]; first compound 2.53 µM) | relative viability ([1]; first compound 8 µM) | relative viability (Masitinib + Tozasertib; first compound 0.01 µM) | relative viability (Masitinib + Tozasertib; first compound 0.03162 µM) | relative viability (Masitinib + Tozasertib; first compound 0.1 µM) | relative viability (Masitinib + Tozasertib; first compound 0.3162 µM) | relative viability (Masitinib + Tozasertib; first compound 1 µM) | relative viability ([2]; first compound 0.08 µM) | relative viability ([2]; first compound 0.253 µM) | relative viability ([2]; first compound 0.8 µM) | relative viability ([2]; first compound 2.53 µM) | relative viability ([2]; first compound 8 µM) |
| --- | --- | --- | --- | --- | --- | --- | --- | --- | --- | --- | --- | --- | --- | --- | --- | --- | --- | --- | --- | --- |
| HCC-78 | 0.634 | 0.637 | 0.605 | 0.693 | 0.615 | 0.708 | 0.528 | 0.862 | 0.623 | 0.673 | 0.338 | 0.446 | 0.423 | 0.447 | 0.454 | 0.713 | 0.791 | 0.842 | 0.685 | 0.674 |
| HCC-366 |  | 0.339 | 0.369 | 0.389 | 0.33 | 0.848 | 1.07 | 1.01 | 1.05 | 0.951 |  | 0.0721 |  | 0.0725 | 0.0736 | 0.352 | 0.331 | 0.261 | 0.286 | 0.21 |
| HCC-827 | 0.296 | 0.342 | 0.295 | 0.27 | 0.312 | 0.204 | 0.187 | 0.191 | 0.187 | 0.179 | 0.378 | 0.444 | 0.444 | 0.457 | 0.514 | 0.639 | 0.635 | 0.661 | 0.717 | 0.654 |
| HOP-62 | 0.22 | 0.222 | 0.23 | 0.201 | 0.212 | 0.94 | 1.02 | 1.2 | 1 | 0.909 | 0.366 | 0.349 | 0.408 | 0.414 | 0.395 | 0.445 | 0.5 | 0.471 | 0.48 | 0.512 |
| IA-LM |  |  |  |  |  | 0.65 | 0.503 | 0.561 | 0.508 | 0.572 |  |  |  |  |  | 0.8 | 0.779 | 0.605 | 0.475 | 0.714 |
| LC-2-ad | 0.837 | 0.795 | 0.85 | 0.795 | 0.894 | 0.953 | 0.86 | 0.948 | 0.853 | 0.788 | 0.426 | 0.443 | 0.435 | 0.391 | 0.384 | 0.661 | 0.693 | 0.657 | 0.627 | 0.616 |
| LCLC-97TM1 | 0.273 | 0.233 | 0.281 | 0.167 | 0.225 |  |  | 1.04 | 1.03 | 1.27 |  | 0.38 | 0.261 | 0.247 | 0.286 | 0.419 | 0.304 | 0.343 | 0.411 | 0.379 |
| LCLC-103H |  | 0.723 | 0.735 | 0.748 | 0.711 |  |  |  |  |  | 0.43 | 0.497 | 0.506 | 0.443 | 0.434 | 0.631 | 0.725 | 0.704 | 0.748 | 0.546 |
| LK-2 | 0.342 | 0.261 | 0.366 | 0.249 | 0.281 | 0.784 | 0.903 | 1.09 |  | 1.33 | 0.177 | 0.167 | 0.177 | 0.158 | 0.165 | 0.665 | 0.762 | 0.903 | 0.824 | 1.09 |

Reference: the supplement of paper PMC10307832
